The values that follow come from US7101902B2, “2-guanidinylimidazolidinedione compounds and methods of making and using thereof” (The United States of America as represented by the …, priority 2003, dated 2006).

Several values for one entry are separate records, joined by “and”; a condition that tells them apart may be missing. Equal entries are not always repeated. Entries after “also recorded” stand apart in the source; their conditions may differ.

In one series the test system is Plasmodium yoelii (17×). The series can be described thus: Sporozoite induced test in mouse (causal prophylactic activity). The note with it: sporozoite challenged CD-1 mice; single dose 4 hours before inoculation; oral administration. Type of series: in vivo. Here is the method:
The causal prophylactic antimalarial activity of the new carbamate derivatives were assessed in a sporozoites challenged mouse model according to the following protocol and the results are shown in Table 4 and Table 5.
Each compound was ground with a mortar and pestle and suspended in 0.5% hydroxyethylcellulose and 0.1% Tween 80 for compounds to be administered PO and those given SC were suspended in peanut oil. Each compound is prepared at 3 different dose levels.
Compounds were administered either PO or SC to mice once 4 hours before inoculation of sporozoites.
Four-week-old male CD-1 mice, purchased from Charles River and weighing about 16 to about 17 grams were placed 5 per cage and allowed to acclimate for 4 days before being treated and then inoculated with sporozoites. They were fed food and water ad-lib and maintained at 76° F. with 12 hour light and 12 hour darkness. The cages and water bottles were changed biweekly. The mice are weighed on Days 0, 3 and 6 then biweekly when blood films were taken.
Plasmodium yoelii (17×) was used to infect mice that will be used to infect the mosquitoes.
Mice were given a single dose of test compound 4 hours before being inoculated intraperitoneally with 2.5×10^5 sporozoites of Plasmodium yoelii on Day 0. Whole body weights were taken on Day 0 and Day 6 then twice a week for 31 days. A blood film was taken on Day 5 and then twice a week for 31 days. Mice loosing greater than about 20% of their body weight were sacrificed. All mice alive on Day 31 with no parasites in a blood film were considered cured. Donor mice used to infect the mosquitoes were infected with 2.5×10^4 parasitized erythrocytes. The mosquitoes were allowed to feed on these malaria-infected mice on Day 4 of their infection when the parasitemia was low.
A compound was considered active against either the sporozoite or the EE stage if no parasites were found in the blood films taken on Day 5 or on subsequent blood films taken weekly for 31 days.
Mice alive on Day 31 with no parasites found in any blood films were considered cured.

The subject of another series is P. cynomolgi sporozoites. The series can be described thus: Oral causal prophylactic assay in Rhesus monkey (compound 3 IM; 4b and 3c PO). In kind it is in vivo, Plasmodium cynomolgi. The note with it: per monkey. Here is the method: To test the causal prophylactic intramuscular potency of the purified isomer of compound 3 and oral potency of two carbamate derivatives of 2-guanidinylimidazolidinedione (4b and 3c) the following assay was conducted.
Fourteen rhesus monkeys were issued.
A donor monkey was inoculated intravenously with 1.3 ml, freshly-thawed frozen infected red blood cell (DA310). When the monkey developed gametocytemia, mosquito feedings were conducted on days 15 and 16 after inoculation. The donor monkey was treated with intramuscular chloroquine hydrochloride (CQ) 10 mg/kg, once a day after the second mosquito feeding and continued for 6 days.
On day 0 of the beginning of the assay, each of the 14 monkeys was inoculated intravenously with 1-ml inoculum of suspension containing about 1.0×10^6 P. cynomolgi sporozoites harvested from Anopheles dirus mosquitoes' salivary glands previously fed on the donor monkey.
All monkeys received treatment on days −1, 0 and 1. The control monkeys (Group 1) received HECT orally and the experimental animals received testing compound intramuscularly (Groups 2 and 3) or orally (Groups 4 to 7).

Series [1] can be described thus: Solubility and characteristics of the compounds in the dosing vehicle. In kind it is physicochemical. The following applies: vehicle DMSO.
The next series deals with Plasmodium falciparum. The note with it: cited from earlier work.
The next series relates to P. vivax. The note with it: cited from earlier work.

For the molecule `CC(C)N1C(=O)C(=O)N=C1NC(=N)Nc1ccc(Cl)c(Cl)c1` [Compound 3, N-(3,4-dichlorophenyl)-N′-(1-isopropyl-4,5-dioxoimidazolidin-2-ylidene)guanidine], the melting point (as a rule, the temperature, or range, at which the solid turns liquid) was 230 °C and 233 °C. In addition, the “Minimum Protective Dose Against P. yoelii” value in the series with Plasmodium yoelii (17×) is recorded as greater than 160 mg/kg. The “Day of Parasitemia” value with P. cynomolgi sporozoites (10 mg/kg IM) is 8 days. Further, the Result result in the series on P. cynomolgi sporozoites (10 mg/kg IM, 10 mg/kg) is on record as “not protected; also recorded: No activity”. Moreover, in the series with P. cynomolgi sporozoites (30 mg/kg IM, 30 mg/kg), the “Day of Parasitemia” value is 15 days and 20 days; the “Result (delay the parasitemia)” value is 7 days and 12 days and did not completely protect the monkeys from malaria. In series [1] (dosage 10 mg/kg), the Sediment result is given as “None”, the Solubility result was “Good” and the Supernatant result is reported as “Yellow clear”. In addition, in series [1] (dosage 30 mg/kg), the Sediment result is given as “None”, the Solubility result is “Moderate” and the Supernatant entry is “Yellow turbid”.
For the molecule `CC(C)NC(=NC(=O)OCc1ccccc1)N=C1NC(=O)C(=O)N1c1ccc(Cl)c(Cl)c1` [Compound 4d, N-[1-(3,4-dichlorophenyl)-4,5-dioxo-imidazolidin-2-ylidene]-N′-isopropyl-N″-(benzyloxycarbonyl)guanidine], the melting point amounted to 211 °C. Moreover, in the series on Plasmodium yoelii (17×), the “Minimum Protective Dose Against P. yoelii” value turned out to be 10 mg/kg.
As for `CC(C)NC(=N)NC(=N)Nc1ccc(Cl)c(Cl)c1` [chlorproguanil], the “Activity against primary exoerythrocytic forms” value in the series with Plasmodium falciparum and in the series with P. vivax was “highly active” throughout.
